Earlier results as cited in patent US11278512B2, “Compositions comprising a metal and L-serine, and uses thereof” (Brain Chemistry Labs, priority 2019, dated 2022).

Columns and labels:
[1] = parameters: reduction in ALSFRS (Amyotrophic Lateral Sclerosis Functional Rating Scale): dose or concentration left out as unconfirmed
[2] = test system: neurofibrillary tangles (NFTs) and β-amyloid plaques

Compound | reduction in ALSFRS (Amyotrophic Lateral Sclerosis Functional Rating Scale) ([1]; daily dosing with for three months, approximates the reduction achieved by Riluzole) [%] | safety when administered to ALS patients ([1]; up to 90 mg/day) | BMAA-induced microglial activation and proteinopathies along the spine, including deposition of TDP-43 and FUS ([2]; BMAA-induced) | density of neurofibrillary tangles (NFTs) and β-amyloid plaques in the brain ([2]; non-human primates) | misincorporation of BMAA into human neuroproteins; protein misfolding, aggregation and apoptosis induced by BMAA (human neuroproteins)
[Zn] [Zinc, zinc] | ~30 | safe |  |  | 
N[C@@H](CO)C(=O)O [L-serine] |  |  | blocks | decreases the density | blocks misincorporation
